Laboratory results from article PMC2391127, “Modulation of erlotinib pharmacokinetics in mice by a novel cytochrome P450 3A4 inhibitor, BAS 100” (British Journal of Cancer, 2008).
Like-named read-outs stand apart in the source and are kept apart here.

What was measured:
[1] = Plasma pharmacokinetics of erlotinib, OSI-420 and BAS 100 after oral dosing in BALB/c mice; format: in vivo; details: for Tmax / AUC(0-t) / Cmax / half-life: mouse, po; for AUC(0-t) / Cmax / half-life: BALB/c; for half-life: read-out: HL λz (terminal half-life) (converted)
Experimental: (§1) BAS 100 was obtained from Bioavailabilty Systems (Cocoa Beach, FL, USA), and erlotinib and OSI-420 were obtained from Toronto Research Chemicals (North York, ON, Canada). All other chemicals and reagents were purchased from Sigma-Aldrich (St Louis, MO, USA). Female BALB/c mice (6–8 weeks old) were kept in a controlled environment, with food and water available ad libitum. All procedures were carried out with NCI Animal Care and Use Committee approval. In the first study, BAS 100 and erlotinib were formulated in 10% DMSO and 5% polysorbate 80 in saline. Mice were randomised to receive erlotinib (10 mg kg^−1, p.o.) alone or 30 min after BAS 100 (10 mg kg^−1, p.o.). Blood was collected by cardiac puncture from three mice per time point at 0.083, 0.25, 0.5, 1, 2, 4, 6 and 24 h following erlotinib administration, and centrifuged to obtain plasma. In the second study, erlotinib was formulated in 0.3% carboxymethylcellulose and 0.1% polysorbate 80 in saline. Female CYP3A4 transgenic mice ([Granvil et al, 2003]) and wild-type FVB/NCr mice (14 weeks old) received erlotinib (10 mg kg^−1, p.o.) alone or 30 min after BAS 100 (25 mg kg^−1, p.o.). Blood was collected 2 h after erlotinib administration. All samples were stored at −80°C until analysis. Plasma concentrations of erlotinib and OSI-420 were measured as described previously ([Zhao et al, 2003]). Plasma concentrations of BAS 100 were measured by a novel liquid chromatography-tandem mass spectrometry method. Briefly, plasma samples were prepared by protein precipitation with acetonitrile. BAS 100 and the internal standard (temazepam) were resolved isocratically on a Waters XTerra MS C18 column (50 × 2.1 mm internal diameter; 3.5 μm particle size). The mass spectrometer was equipped with an electrospray ionisation source and operated in positive mode. Detection was performed by multiple reaction monitoring. The lower limit of quantitation was 10 ng ml^−1. Pharmacokinetic parameters were determined by noncompartmental analysis using WinNonlin Professional Version 5.2 (Pharsight Corporation, Mountain View, CA, USA). Bailer's method ([Bailer, 1988]) was used to estimate the variance of the area under the curve (AUC). A Z-test was used for the pairwise comparison of AUCs ([Yuan, 1993]).

[2] = 2-h plasma concentration of erlotinib in wild-type FVB/NCr mice; format: in vivo; details: for concentration at 2 h: female, FVB/NCr, mouse, plasma, po
Experimental: as §1, with “Bailer's method ([Bailer, 1988]) was used to estimate the variance of the area under the curve (AUC). A Z-test was used for the pairwise comparison of AUCs ([Yuan, 1993]).” left out

[3] = ref Hidalgo et al, 2001, cited from earlier work
[4] = 2-h plasma concentration of erlotinib in CYP3A4 transgenic mice; details: female, mouse, in vivo, po, 10 mg kg^-1
Experimental: BAS 100 was obtained from Bioavailabilty Systems (Cocoa Beach, FL, USA), and erlotinib and OSI-420 were obtained from Toronto Research Chemicals (North York, ON, Canada). All other chemicals and reagents were purchased from Sigma-Aldrich (St Louis, MO, USA). Female BALB/c mice (6–8 weeks old) were kept in a controlled environment, with food and water available ad libitum. All procedures were carried out with NCI Animal Care and Use Committee approval. In the first study, BAS 100 and erlotinib were formulated in 10% DMSO and 5% polysorbate 80 in saline. Mice were randomised to receive erlotinib (10 mg kg^−1, p.o.) alone or 30 min after BAS 100 (10 mg kg^−1, p.o.). Blood was collected by cardiac puncture from three mice per time point at 0.083, 0.25, 0.5, 1, 2, 4, 6 and 24 h following erlotinib administration, and centrifuged to obtain plasma. In the second study, erlotinib was formulated in 0.3% carboxymethylcellulose and 0.1% polysorbate 80 in saline. […] Plasma concentrations of erlotinib and OSI-420 were measured as described previously ([Zhao et al, 2003]). Plasma concentrations of BAS 100 were measured by a novel liquid chromatography-tandem mass spectrometry method. […] The lower limit of quantitation was 10 ng ml^−1. Pharmacokinetic parameters were determined by noncompartmental analysis using WinNonlin Professional Version 5.2 (Pharsight Corporation, Mountain View, CA, USA). […]

[5] = female, plasma, 10 mg/kg, plasma, erlotinib 10 mg kg^-1 p.o. 30 min after BAS 100 10 mg kg^-1 p.o., BALB/c mice
[6] = female, plasma, 10 mg/kg, erlotinib 10 mg kg^-1 p.o. alone (-BAS 100), BALB/c mice

Row | SMILES | Tmax ([1]; in vivo, 10 mg/kg) [h] | erlotinib exposure after 2.5-fold increase in the dose of BAS 100 ([1]; BAS 100 25 mg kg^-1 vs 10 mg kg^-1, data not shown) | fold increase in the AUC of erlotinib by BAS 100 ([1]; erlotinib 10 mg kg^-1 p.o. after BAS 100 10 mg kg^-1 p.o. vs alone, P<0.05) [fold] | AUC(0-t) [1, 5] [ng·h/mL] | Cmax [1, 5] [ng/mL] | half-life [1, 5] [h] | half-life ([1]; female, plasma, 10 mg/kg, plasma, erlotinib 10 mg kg^-1 p.o. alone (-BAS 100), BALB/c mice) [h] | AUC(0-t) [1, 6] [ng·h/mL] | Cmax [1, 6] [ng/mL] | Tmax ([1]; female, plasma, erlotinib 10 mg kg^-1 p.o. alone (-BAS 100), BALB/c mice, read-out: Tmax) [h] | fold increase in 2-h plasma concentration of erlotinib by BAS 100 ([2]; BAS 100 25 mg kg^-1 p.o.) [fold] | concentration at 2 h ([2]; erlotinib 10 mg kg^-1 p.o. 30 min after BAS 100 25 mg kg^-1 p.o.) [ng/mL] | concentration at 2 h ([2]; erlotinib 10 mg kg^-1 p.o. alone) [ng/mL] | relative extent of metabolism of erlotinib into OSI-420 ([3]; cancer patients) | interindividual pharmacokinetic variability ([3]; patients, Tan et al, 2004) | concentration at 2 h [4] [ng/mL]
1 | C#Cc1cccc(Nc2ncnc3cc(OCCOC)c(OCCO)cc23)c1 [OSI-420] | 2.0 | – | – | – | – | – | – | – | – | – | – | – | – | – | – | –
2 | C#Cc1cccc(Nc2ncnc3cc(OCCOC)c(OCCOC)cc23)c1 [Erlotinib] | – | did not result in a further increase in erlotinib exposure | 2.1 | 38000 | 3950 | 3.2 | 3.1 | 18000 | 2320 | 0.5 | 1.9 | 1410 ± 237 | 744 ± 135 | 0.12 | up to eight-fold | 929 ± 80
